How the values were obtained:
[1] = test system: recombinant human CFTR carrying the premature stop codon (PTC) mutation R1162X; assay: CFTR-PTC mutant translation readthrough, Nanoluc tagged CFTR luminescence (R1162X cell line); assay type: cell-based; settings: for CFTR R1162X ACTIVITY Fold 10 μM G-418: fold over 10 μM G-418, in combination with G418; for EC50: in combination with G418, 16HBE cells, read-out: CFTR R1162X ACTIVITY EC50
How it was run: (§1)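 16HBE cells stably expressing Nanoluc-tagged human CFTR with G542X or R1162X, in medium with 3 μM VX-809, treated 48 h at 37 °C with compound (10-point, 2-fold, top 50 μM final) alone or with 10 μM G418. Live-cell Nanoluc luminescence normalised to a maximally effective G418 (125-250 μM).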

[2] = test system: recombinant human CFTR carrying the premature stop codon (PTC) mutation G542X; assay: CFTR-PTC mutant translation readthrough, Nanoluc tagged CFTR luminescence (G542X cell line); assay type: cell-based; settings: in combination with G418, G542X cell line; for CFTR G542X ACTIVITY Fold 10 μM G-418: fold over 10 μM G-418; for EC50: 16HBE cells
How it was run: as §1

Compound	CFTR R1162X ACTIVITY Fold 10 μM G-418 [1]	EC50 [1] [µM]	CFTR G542X ACTIVITY Fold 10 μM G-418 [2]	EC50 [2] [µM]
OCc1ncn(-c2ccc(OCc3c(Cl)cccc3Cl)cc2)n1 [[1-[4-[(2,6-dichlorophenyl)methoxy]phenyl]-1,2,4-triazol-3-yl]methanol]	A′ (A′ = ≥10X)	1 to 10	A′ (A′ = ≥10X)	1 to 10
Cc1cccc(C(C)(F)F)c1COc1cnc(N2CCN(C(N)=O)CC2)nc1	A′ (A′ = ≥10X)	< 1	A′ (A′ = ≥10X)	< 1
Cc1cccc(C(F)(F)F)c1COc1cnc(-n2nnc3ccccc32)nc1 [1-[5-[[2-methyl-6-(trifluoromethyl)phenyl]methoxy]pyrimidin-2-yl]benzotriazole]	A′ (A′ = ≥10X)	< 1	A′ (A′ = ≥10X)	< 1
N#Cc1ncn(-c2ncc(OCc3c(Cl)cccc3Cl)cn2)n1 [1-[5-[(2,6-dichlorophenyl)methoxy]pyrimidin-2-yl]-1,2,4-triazole-3-carbonitrile]	C′ (C′ = <5X)	1 to 10	A′ (A′ = ≥10X)	1 to 10
O=C1CN(c2ncc(OCc3c(Cl)cccc3C(F)(F)F)cn2)C[C@H](CO)N1	A′ (A′ = ≥10X)	1 to 10	A′ (A′ = ≥10X)	1 to 10
O=C(O)C1CN(c2ncc(OCc3c(Cl)cccc3C(F)(F)F)cn2)CCO1 (centres unmarked) [4-(5-{[2-chloro-6-(trifluoromethyl)phenyl]methoxy}pyrimidin-]		> 10		1 to 10
OCCC1(O)CCN(c2ncc(OCc3c(Cl)cccc3Cl)cn2)CC1	A′ (A′ = ≥10X)	< 1	A′ (A′ = ≥10X)	< 1
Cc1cccc(C(F)(F)F)c1COc1cnc(N2CC(=O)NC2=O)nc1	A′ (A′ = ≥10X)	1 to 10	A′ (A′ = ≥10X)	1 to 10
CN1CC(=O)N(c2ccc(OCc3c(Cl)cccc3C(F)(F)F)cn2)C1=O	C′ (C′ = <5X)	1 to 10	A′ (A′ = ≥10X)	1 to 10
Cc1cccc(C(F)(F)F)c1COc1ccc(N2CCOC(CO)C2)cc1 (centres unmarked)	A′ (A′ = ≥10X)	1 to 10	A′ (A′ = ≥10X)	< 1
OCc1cn(-c2ccc(CCc3c(Cl)cccc3Cl)cc2)cn1 [[1-[4-[2-(2,6-dichlorophenyl)ethyl]phenyl]imidazol-4-yl]methanol]	A′ (A′ = ≥10X)	> 10	B′ (B′ = ≥5X to <10X)	1 to 10
Cc1cccc(C(F)(F)F)c1COc1ccc(N2C(=O)NC(C)(C)C2=O)cc1	A′ (A′ = ≥10X)	< 1	A′ (A′ = ≥10X)	< 1
NC(=O)N1CCN(c2ncc(OCc3c(Cl)cccc3Cl)cn2)CC(O)C1 (centres unmarked)	A′ (A′ = ≥10X)	1 to 10	A′ (A′ = ≥10X)	1 to 10
CN(CCCO)c1ncc(OCc2c(Cl)cccc2Cl)cn1 [3-[[5-[(2,6-dichlorophenyl)methoxy]pyrimidin-2-yl]-methyl-amino]propan-1-ol]	B′ (B′ = ≥5X to <10X)	> 10	B′ (B′ = ≥5X to <10X)	1 to 10
Clc1cccc(Cl)c1COc1cnc(-c2nnn[nH]2)nc1 [5-[(2,6-dichlorophenyl)methoxy]-2-(1H-tetrazol-5-yl)pyrimidine]		> 10		> 10
Clc1cccc(Cl)c1COc1cnc(N2C[C@H]3COC[C@H]3C2)nc1	A′ (A′ = ≥10X)	1 to 10	A′ (A′ = ≥10X)	1 to 10
Cc1cccc(C(F)(F)F)c1COc1cnc(-n2cnc(CO)n2)nc1	A′ (A′ = ≥10X)	1 to 10	A′ (A′ = ≥10X)	< 1
NC(=O)[C@@H]1CCN(c2ncc(OCc3c(Cl)cccc3C(F)(F)F)cn2)C1	A′ (A′ = ≥10X)	1 to 10	A′ (A′ = ≥10X)	1 to 10
O=C(O)c1ncn(-c2ncc(OCc3c(Cl)cccc3C(F)(F)F)cn2)n1		> 10		> 10
CCc1cccc(C(F)(F)F)c1COc1ccc(N2CCOC(CO)C2)cc1 (centres unmarked) [[4-[4-[[2-ethyl-6-(trifluoromethyl)phenyl]methoxy]phenyl]morpholin-2-yl]methanol]	A′ (A′ = ≥10X)	< 1	A′ (A′ = ≥10X)	< 1

Compound	CFTR R1162X ACTIVITY Fold 10 μM G-418 [1]	EC50 [1] [µM]	CFTR G542X ACTIVITY Fold 10 μM G-418 [2]	EC50 [2] [µM]
Cc1cccc(C(F)(F)F)c1COc1ccc(-n2cnc(CN)n2)cc1	A′ (A′ = ≥10X)	1 to 10	A′ (A′ = ≥10X)	< 1
O=C1COC(CO)CN1c1ccc(OCc2c(Cl)cccc2C(F)(F)F)cn1 (centres unmarked)	A′ (A′ = ≥10X)	1 to 10	A′ (A′ = ≥10X)	1 to 10
CCc1cccc(C(F)(F)F)c1COc1cnc(-n2ccc(CO)n2)nc1	A′ (A′ = ≥10X)	< 1	A′ (A′ = ≥10X)	< 1
Cc1cccc(C(F)(F)F)c1COc1cnc(N2CCO[C@H](CO)C2)nc1	A′ (A′ = ≥10X)	< 1	A′ (A′ = ≥10X)	< 1
O=C(O)c1ncn(-c2ccc(OCc3c(Cl)cccc3C(F)(F)F)cn2)n1 [1-[5-[[2-chloro-6-(trifluoromethyl)phenyl]methoxy]-2-pyridyl]		< 1	B′ (B′ = ≥5X to <10X)	1 to 10
Cc1cccc(C(F)(F)F)c1COc1cnc(N2CCOC(CN)C2)nc1 (centres unmarked)	A′ (A′ = ≥10X)	< 1	A′ (A′ = ≥10X)	< 1
CCc1cccc(C(F)(F)F)c1COc1ccc(N2C[C@@H](CO)NC2=O)nc1	C′ (C′ = <5X)	< 1	C′ (C′ = <5X)	< 1
NCC1CN(c2ccc(OCc3c(Cl)cccc3Cl)cc2)C(=O)O1 (centres unmarked) [5-(aminomethyl)-3-[4-[(2,6-dichlorophenyl)methoxy]phenyl]oxazolidin-2-one]	A′ (A′ = ≥10X)	> 10	B′ (B′ = ≥5X to <10X)	1 to 10
O=C1O[C@H](CO)CN1c1ccc(OCc2c(Cl)cccc2C(F)(F)F)cn1	A′ (A′ = ≥10X)	1 to 10	A′ (A′ = ≥10X)	1 to 10
OCC1CN(c2ccc(OCc3c(Cl)cccc3C(F)(F)F)cn2)CCO1 (centres unmarked)	A′ (A′ = ≥10X)	< 1	A′ (A′ = ≥10X)	< 1
OCc1cn(-c2ccc(OCc3c(Cl)cccc3Cl)cn2)nn1 [[1-[5-[(2,6-dichlorophenyl)methoxy]-2-pyridyl]triazol-4-yl]methanol]	A′ (A′ = ≥10X)	< 1	A′ (A′ = ≥10X)	< 1
CC(=O)NCC1CN(c2ccc(OCc3c(C)cccc3C(F)(F)F)cc2)C(=O)O1 (centres unmarked)	A′ (A′ = ≥10X)	1 to 10	A′ (A′ = ≥10X)	1 to 10
OCc1cn(-c2ccc(OCc3c(Cl)cccc3Cl)cn2)cn1 [[1-[5-[(2,6-dichlorophenyl)methoxy]-2-pyridyl]imidazol-4-yl]methanol]	A′ (A′ = ≥10X)	> 10	B′ (B′ = ≥5X to <10X)	1 to 10
OC1CCN(c2ncc(OCc3c(Cl)cccc3Cl)cn2)CC1 [1-[5-[(2,6-dichlorophenyl)methoxy]pyrimidin-2-yl]piperidin-4-ol]	A′ (A′ = ≥10X)	< 1	A′ (A′ = ≥10X)	< 1
OCc1nc(-c2ccc(OCc3c(Cl)cccc3Cl)cc2)co1 [[4-[4-[(2,6-dichlorophenyl)methoxy]phenyl]oxazol-2-yl]methanol]	A′ (A′ = ≥10X)	1 to 10	A′ (A′ = ≥10X)	1 to 10
OCCOCCN1CCN(c2ncc(OCc3c(Cl)cccc3Cl)cn2)CC1	A′ (A′ = ≥10X)	< 1	A′ (A′ = ≥10X)	< 1
OC1CN(c2ncc(OCc3c(Cl)cccc3Cl)cn2)C1 [1-[5-[(2,6-dichlorophenyl)methoxy]pyrimidin-2-yl]azetidin-3-ol]	A′ (A′ = ≥10X)	1 to 10	A′ (A′ = ≥10X)	1 to 10
Cc1cccc(C(F)(F)F)c1COc1ccc(N2C(=O)NC(C(C)C)C2=O)cc1 (centres unmarked)	A′ (A′ = ≥10X)	1 to 10	A′ (A′ = ≥10X)	< 1
Cc1cccc(C(F)(F)F)c1COc1ccc(N2C[C@@H](CO)NC2=O)nc1	A′ (A′ = ≥10X)	< 1	A′ (A′ = ≥10X)	< 1

— patent US20250228865A1, “COMPOUNDS FOR ENHANCING READ THROUGH OF GENES CONTAINING PREMATURE TERMINATION CODONS AND METHODS FOR MAKING AND USING THE SAME” (Sanofi US Services Inc., priority 2022, published 2025)
